# In US7387779B2, “Anti-angiogenic proteins and fragments and methods of use thereof” (Beth Israel Deaconess Medical Center, priority 1998, dated 2008):
# Several values for one entry are separate records, joined by “and”; a condition that tells them apart may be missing. Equal entries are not always repeated. Where two headings read alike, the source gives them in different places.
# Tests used:
# [1] = tested on: PC3 tumor xenografts; assay: PC3 human prostate tumor xenograft (Example 58); type: in vivo, nude NCRNU mice
# Protocol: Male nude NCRNU mice, 5-6 weeks old, weighing approximately 25 grams, 6 were implanted with 2×10^6 PC3 cells into the dorsal subcutis. When the tumors were 60 mm^3, the animals were pair-matched into treatment and control groups. Each group contained 6-7 tumored mice, each of which was ear-tagged and followed individually throughout the experiment. Initial doses of peptide or vehicle control were given on the day of pair-matching (Day 0), and were administered via intraperitoneal (i.p.) injection at doses indicated. Mice were weighed weekly, and tumor measurements were taken by calipers weekly. These tumor measurements were converted to tumor volume by a well-known formula, (V=W^2×L/2), and mean tumor volumes were plotted against time. Mice were euthenized at the end of the treatment period. Upon termination, the mice were weighed, sacrificed and their tumors were excised. The mean tumor weight per group was calculated, and the value of mean treated tumor volume or volume ratio/mean control tumor volume or volume ratio×100 was subtracted from 100% to give the tumor growth inhibition (TG1) for each group. All groups received injections I.P. daily, except for two T8-treated groups, which were treated twice per week and once a week, respectively.
# [2] = tested on: MDAMB-435 tumor xenografts; assay: MDAMB-435 human breast orthotopic xenograft (Example 57); type: in vivo, nude NCRNU mice; conditions: four weeks; for Final Tumor Weight (V/Vo) ± SEM: control 3.77 ± 0.38
# Protocol: Female nude NCRNU mice, 5-6 weeks old, weighing approximately 20 grams, were implanted with 2×10^6 MDAMB-435 cells into the subaxillary mammary fat pad. When the tumors were 100 mm^3, the animals were pair-matched into treatment and control groups. Each group contained 6-7 tumored mice, each of which was ear-tagged and followed individually throughout the experiment. Initial doses of T8 or TP3 peptide or vehicle control were given on the day of pair-matching (Day 0), and were administered via intraperitoneal (i.p.) injection at doses indicated. Mice were weighed twice weekly, and tumor measurements were taken by calipers twice weekly, starting on Day 1. These tumor measurements were converted to tumor volume by a well-known formula, (V=W^2×L/2) and mean tumor volumes as well as volume ratios (V/Vo) were plotted against time. Mice were euthanized at the end of the treatment period. Upon termination, the mice were weighed, sacrificed and their tumors were excised. The mean tumor weight per group was calculated, and the mean value (treated tumor ratio/mean control tumor ratio× 100) was subtracted from 100% to give the tumor growth inhibition (TGI) for each group.
# Treatment was initiated when tumor volumes reached […]. All groups received injections I.P. daily, except for one T8-treated group, which was treated twice per week.
# [3] = tested on: MDAMB-435 tumor xenografts; assay: MDAMB-435 human breast tumor xenograft (Example 59); type: in vivo, nude NCRNU mice; conditions: 5.0 mg/kg i.p. daily, 3 weeks
# Source text: (§1) For tests involving the MDAMB-435 model, female nude NCRNU mice, 5-6 weeks old, weighing approximately 20 grams, were implanted with 2×10^6 MDAMB-435 cells into the subaxillary mammary fat pad. For tests involving the PC3 model, male nude NCRNU mice, 5-6 weeks old, weighing approximately 25 g were implanted with 2×10^6 PC3 cells into the dorsal subcutis. When the tumors were 100 mm^3 (for the MDAMB-435 model), or 60 mm^3 (for the PC3 model), the animals were pair-matched into treatment and control groups.
# (§2) Each group contained 6-7 tumored mice, each of which was ear-tagged and followed individually throughout the experiment. Initial doses of peptide or vehicle control were given on the day of pair-matching (Day 0), and were administered daily via intraperitoneal (i.p.) injection at doses indicated. Mice were weighed weekly, and tumor measurements were taken by calipers weekly, starting on Day 0. These tumor measurements were converted to tumor volume by a well-known formula, (V=W^2×L/2) and mean tumor volumes were plotted against time. Mice were euthenized at the end of the treatment period. Upon termination, the mice were weighed, sacrificed and their tumors were excised. The mean tumor weight per group was calculated, and the mean treated tumor volume/control tumor volume×100 was subtracted from 100% to give the tumor growth inhibition (TGI) for each group.
# [4] = tested on: MDAMB-435 tumor xenografts; type: in vivo; conditions: for Final Tumor Weight ± SEM: control 333.3 ± 39.61
# Protocol: Female nude NCRNU mice, 5-6 weeks old, weighing approximately 20 grams, were implanted with 2×10^6 MDAMB-435 cells in the subaxillary mammary fat pad. When the tumors were 100 mm^3, the animals were pair-matched into treatment and control groups. Each group contained 7 tumored mice, each of which was ear-tagged and followed individually throughout the experiment. Initial doses of T8 peptide or vehicle control were given on the day of pair-matching (Day 0), and were administered via intraperitoneal (i.p.) injection at 1 mg and 2.5 mg per kg animal weight. Mice were weighed twice weekly, and tumor measurements were taken by calipers twice weekly, starting on Day 1. These tumor measurements were converted to tumor volume by the well-known formula V=W2×L/2, and mean tumor volumes were plotted against time. Mice were euthenized at the end of the treatment period. Upon termination, the mice were weighed, sacrificed and their tumors were excised. The mean tumor weight per group was calculated, and the value of (mean treated tumor weight/mean control tumor weight×100) was subtracted from 100% to give the tumor growth inhibition (TGI) for each group.
# Treatment was initiated when tumor volumes reached 100 mm^3. All groups received injections bid, i.p., for 26 days.
# [5] = tested on: PC3 tumor xenografts; assay: PC3 human prostate tumor xenograft (Example 59); type: in vivo, nude NCRNU mice; conditions: 5.0 mg/kg i.p. daily, 3 weeks
# Source text: as §1, §2
# [6] = tested on: mouse aortic endothelial cells (MAE); assay: Endothelial tube formation on Matrigel; type: cell-based; conditions: endothelial tube assay (FIGS. 30 and 31)
# Protocol: To measure inhibition of endothelial tube formation, 320 μl of Matrigel (Collaborative Biomedical Products, Bedford, Mass., USA) was added to each well of a 24-well plate and allowed to polymerize (Grant, D. S. et al., 1994, Pathol. Res. Pract. 190:854-63). A suspension of 25,000 mouse aortic endothelial cells (MAE) in EGM-2 medium (Clonetics Corp., San Diego, Calif., USA) without antibiotic was passed into each well coated with Matrigel. The cells were treated with increasing concentrations of either Arresten, BSA, sterile PBS or the 7S domain. All assays were performed in triplicate. Cells were incubated for 24-48 hours at 37° C. and viewed using a CK2 Olympus microscope (3.3 ocular, 10× objective). The cells were then photographed using 400 DK coated TMAX film (Kodak). Cells were stained with diff-quik fixative (Sigma Chemical Company, St. Louis, Mo., USA) and photographed again. Ten fields were viewed, and the tubes counted and averaged.
# Matrigel (Collaborative Biomedical Products, Bedford, Mass., USA) was added ([…]) to each well of a 24 well plate and allowed to polymerize (Grant, D. S. et al., supra). A suspension of 25,000 mouse aortic endothelial cells (MAE) in EGM-2 (Clonetics Corporation, San Diego, Calif., USA) medium without antibiotic was passed into each well coated with Matrigel. The cells were treated with either Canstatin, BSA, sterile PBS or α5-NC1 domain in increasing concentrations. All assays were performed in triplicate. Cells were incubated for 24-48 hours at 37° C. and viewed using a CK2 Olympus microscope (3.3 ocular, 10× objective). The cells were then photographed using 400 DK coated TMAX film (Kodak). Cells were stained with diff-quik fixative (Sigma Chemical Co., St. Louis, Mo., USA) and photographed again (Grant, D. S. et al., 1994, Pathol. Res. Pract. 190:854-63). Ten fields were viewed, tubes counted and averaged.
# Matrigel (Collaborative Biomedical Prods., Bedford, Mass., USA) was added ([…]) to each well of a 24-well plate and allowed to polymerize (Grant, D. S. et al., 1994, Pathol. Res. Pract. 190:854-63). A suspension of 25,000 MAE cells in EGM-2 medium (Clonetics Corporation, San Diego, Calif., USA) without antibiotic was passed into each well coated with Matrigel (Grant, D. S. et al., 1994, Pathol. Res. Pract. 190:854-63). The cells were treated with either Tumstatin, BSA or 7S domain in increasing concentrations. Control cells were incubated with sterile PBS. All assays were performed in triplicate. Cells were incubated for 24-48 hours at 37° C. and viewed using a CK2 Olympus microscope (magnification of 3.3× ocular, 10× objective). The cells were then photographed using 400 DK coated TMAX film (Kodak). Cells were stained with diff-quik fixative (Sigma Chemical Co.) and photographed again (Grant, D. S. et al., 1994, Pathol. Res. Pract. 190:854-63). Ten fields were viewed, and the number of tubes were counted by two investigators unaware of the experimental protocols, and averaged.
# Fragments and mutants of Arresten and Canstatin were also made according to the Pseudomonas elastase digestions of Mariyama et al. (1992, J. Biol. Chem. 267:1253-58). The digest was resolved by gel filtration HPLC and the resultant fragments were analyzed by SDS-PAGE and evaluated in the endothelial tube assay described above. These fragments included a 12 kDa fragment of Arresten, an 8 kDa fragment of Arresten, and a 10 kDa fragment of Canstatin. In addition, two fragments of Tumstatin (‘333’ and ‘334’) were generated by PCR cloning.
# [7] = 5.0 mg/kg i.p. daily, 3 weeks, T7 vehicle 5.626 ± 0.38, T8 vehicle 6.278 ± 1.483
# [8] = 5.0 mg/kg, printed (2x/week) again, once a week in the text
molecule,measurement,setting,value
"KLFCNVNCVCNFASRNDYS (TP3 (amino acids 76-94 of SEQ ID NO10; lysine has been substituted for the phenylalanine residue at position 76 of the full-length Tumstatin molecule, and cysteine has been substituted for the aspartic acid at position 83))",% Tumor growth inhibition,"[1]; 5.0 mg/kg i.p. daily, 3 weeks",53.2%
same,Final Tumor Weight (V/Vo) ± SEM,[1]; [7],2.940 ± 0.636
same,Final Tumor Weight (V/Vo) ± SEM,[2]; 1.0 mg/kg I.P. daily,2.62 ± 0.45
same,% Tumor growth inhibition,[2]; 5.0 mg/kg I.P. daily,50.0%
same,Final Tumor Weight (V/Vo) ± SEM,[2]; 5.0 mg/kg I.P. daily,1.88 ± 0.29
KQRFTTMPFLFCNVNDVCNFASRNDYS [T8],% Tumor growth inhibition,[3],50.5%
same,Final Tumor Weight (V/Vo) ± SEM,[3]; control 468.5 ± 48.06,231.9 ± 27.03
same,% Tumor growth inhibition,"[4]; 2.5 mg/kg, bid i.p., 26 days",~49% and 47.91%
same,Final Tumor Weight ± SEM,"[4]; 2.5 mg/kg, bid i.p., 26 days",173.6 ± 23.73
same,Final Tumor Weight ± SEM,"[4]; Dosage 1.9 mg/kg as printed (1 mg/kg in the text), bid i.p., 26 days",237.8 ± 31.88
same,toxicity as judged by weight change,"[4]; mouse, in vivo",no toxicity
same,% Tumor growth inhibition,[1]; 5.0 mg/kg (2x/week),8.1%
same,Final Tumor Weight (V/Vo) ± SEM,[1]; 5.0 mg/kg (2x/week),5.770 ± 1.156
same,% Tumor growth inhibition,"[1]; 5.0 mg/kg i.p. daily, 3 weeks",45%
same,Final Tumor Weight (V/Vo) ± SEM,[1]; [7],3.455 ± 1.228
same,% Tumor growth inhibition,[1]; [8],39.5%
same,Final Tumor Weight (V/Vo) ± SEM,[1]; [8],3.800 ± 1.602
same,Final Tumor Weight (V/Vo) ± SEM,[2]; 5.0 mg/kg (2x/week),2.21 ± 0.31
same,% Tumor growth inhibition,[2]; 5.0 mg/kg I.P. daily,31%
same,Final Tumor Weight (V/Vo) ± SEM,[2]; 5.0 mg/kg I.P. daily,2.60 ± 0.38
same,% Tumor growth inhibition,[5],35.4%
same,Final Tumor Weight (V/Vo) ± SEM,[5]; control 1070.0 ± 132.5,691.4 ± 90.52
"Tumstatin 334: residues 125 to 244 of full-length Tumstatin (SEQ ID NO:21) (protein, Tumstatin 334 (amino acids 125-244 of SEQ ID NO10)) CEGPAIAIAVHSQTTDIPPCPHGWISLWKGFSFIMFTSAGSEGTGQALASPGSCLEEFRASPFLECHGRGTCNYYSNSYSFWLASLNPERMFRKPIPSTVKAGELEKIISRCQVCMKKRH",ED50,[6],0.02 µg/mL
"Tumstatin 333: residues 1 to 124 of full-length Tumstatin (SEQ ID NO:20) (protein, Tumstatin 333 (amino acids 1-124 of3 SEQ ID NO10)) GLKGKRGDSGSPATWTTRGFVFTRHSQTTAIPSCPEGTVPLYSGFSFLFVQGNQRAHGQDLGTLGSCLQRFTTMPFLFCNVNDVCNFASRNDYSYWLSTPALMPMNMAPITGRALEPYISRCTV",ED50,[6],0.075 µg/mL
